From PubChem BioAssay AID2060888 (Molecular Pharmacology Branch, DTP, NCI, 2025)

System: 695427-040-R-J1-PDC complex spheroid viability
Experiment: Anticancer human tumor 695427-040-R-J1-PDC patient-derived colon adenocarcinoma cell line growth inhibition [RAS]
Settings: for IC50: curve of first compound; for viability, T/C: stronger effect = lower value
Outline: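 Multi-cell-type spheroids: tumor cells plus HUVEC endothelial cells and mesenchymal stem cells. RAS-pathway inhibitors were combined with targeted agents, each dosed in half-log steps down from clinical Cmax, or from 10 microM when Cmax was unknown.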

[1] = second compound 0.000949 µM, first compound 0.0316 µM
[2] = second compound 0.000949 µM, first compound 0.1 µM
[3] = second compound 0.000949 µM, first compound 0.316 µM
[4] = second compound 0.000949 µM, first compound 1 µM
[5] = second compound 0.003 µM, first compound 0.0316 µM
[6] = second compound 0.003 µM, first compound 0.1 µM
[7] = second compound 0.003 µM, first compound 0.316 µM
[8] = second compound 0.003 µM, first compound 1 µM
[9] = second compound 0.00949 µM, first compound 0.0316 µM
[10] = second compound 0.00949 µM, first compound 0.1 µM
[11] = second compound 0.00949 µM, first compound 0.316 µM
[12] = second compound 0.00949 µM, first compound 1 µM
[13] = second compound 0.03 µM, first compound 0.0316 µM
[14] = second compound 0.03 µM, first compound 0.1 µM
[15] = second compound 0.03 µM, first compound 0.316 µM
[16] = second compound 0.03 µM, first compound 1 µM
[17] = second compound 0.0949 µM, first compound 0.0316 µM
[18] = second compound 0.0949 µM, first compound 0.1 µM
[19] = second compound 0.0949 µM, first compound 0.316 µM
[20] = second compound 0.0949 µM, first compound 1 µM
[21] = second compound 0.3 µM, first compound 0.0316 µM
[22] = second compound 0.3 µM, first compound 0.1 µM
[23] = second compound 0.3 µM, first compound 0.316 µM
[24] = second compound 0.3 µM, first compound 1 µM
[25] = second compound 0.000949 µM, first compound 3.16 µM
[26] = second compound 0.000949 µM, first compound 10 µM
[27] = second compound 0.003 µM, first compound 3.16 µM
[28] = second compound 0.003 µM, first compound 10 µM
[29] = second compound 0.00949 µM, first compound 3.16 µM
[30] = second compound 0.00949 µM, first compound 10 µM
[31] = second compound 0.03 µM, first compound 3.16 µM
[32] = second compound 0.03 µM, first compound 10 µM
[33] = second compound 0.0949 µM, first compound 3.16 µM
[34] = second compound 0.0949 µM, first compound 10 µM
[35] = second compound 0.3 µM, first compound 3.16 µM
[36] = second compound 0.3 µM, first compound 10 µM
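Note: viability read after seven days of drug exposure.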
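Throughout, for viability, T/C: 100% = DMSO vehicle control viability.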

## O=C(c1ccc(F)c(F)c1Nc1ccc(I)cc1F)N1CC(O)([C@@H]2CCCCN2)C1 + CCn1c(-c2cc(N3CCN(C)CC3)cnc2C(C)OC)c2c3cc(ccc31)-c1csc(n1)CC(NC(=O)C1CC1C)C(=O)N1CCCC(N1)C(=O)OCC(C)(C)C2
Second compound 0.000949 µM
  IC50: 0.0736 µM
Second compound 0.003 µM
  IC50: 0.0431 µM
Second compound 0.00949 µM
  IC50: 0.0265 µM
Second compound 0.03 µM
  IC50: 0.00498 µM
Second compound 0.0949 µM
  IC50: < 0.00316 µM
Second compound 0.3 µM
  IC50: < 0.00316 µM
Second compound 0.000949 µM, first compound 0.00316 µM
  viability, T/C: 79.7%
Second compound 0.000949 µM, first compound 0.01 µM
  viability, T/C: 75.5%
[1]
  viability, T/C: 65.4%
[2]
  viability, T/C: 45.2%
[3]
  viability, T/C: 18.3%
[4]
  viability, T/C: 6.04%
Second compound 0.003 µM, first compound 0.00316 µM
  viability, T/C: 91.8%
Second compound 0.003 µM, first compound 0.01 µM
  viability, T/C: 74.2%
[5]
  viability, T/C: 53.8%
[6]
  viability, T/C: 40%
[7]
  viability, T/C: 14.5%
[8]
  viability, T/C: 7.31%
Second compound 0.00949 µM, first compound 0.00316 µM
  viability, T/C: 73.1%
Second compound 0.00949 µM, first compound 0.01 µM
  viability, T/C: 63.4%
[9]
  viability, T/C: 45.9%
[10]
  viability, T/C: 32.7%
[11]
  viability, T/C: 11.4%
[12]
  viability, T/C: 7.1%
Second compound 0.03 µM, first compound 0.00316 µM
  viability, T/C: 57.8%
Second compound 0.03 µM, first compound 0.01 µM
  viability, T/C: 37.1%
[13]
  viability, T/C: 28.5%
[14]
  viability, T/C: 18.5%
[15]
  viability, T/C: 8.58%
[16]
  viability, T/C: 5.7%
Second compound 0.0949 µM, first compound 0.00316 µM
  viability, T/C: 28.6%
Second compound 0.0949 µM, first compound 0.01 µM
  viability, T/C: 27.8%
[17]
  viability, T/C: 15.5%
[18]
  viability, T/C: 7.38%
[19]
  viability, T/C: 6.14%
[20]
  viability, T/C: 4.07%
Second compound 0.3 µM, first compound 0.00316 µM
  viability, T/C: 23.2%
Second compound 0.3 µM, first compound 0.01 µM
  viability, T/C: 17.1%
[21]
  viability, T/C: 11.6%
[22]
  viability, T/C: 6.62%
[23]
  viability, T/C: 6.7%
[24]
  viability, T/C: 5.28%

## CC1(O)CCCC1n1c(=O)c(C(F)F)cc2cnc(NC3CCN(S(C)(=O)=O)CC3)nc21 (stereo not drawn) + CCn1c(-c2cccnc2C(C)OC)c2c3cc(ccc31)N1CCOC(CC(NC(=O)C(C(C)C)N(C)C(=O)C3(F)CCN(C(=O)C#CC(C)(C)N(C)C)CC3)C(=O)N3CCCC(N3)C(=O)OCC(C)(C)C2)C1
Second compound 0.000949 µM
  IC50: > 10 µM
Second compound 0.003 µM
  IC50: > 10 µM
Second compound 0.00949 µM
  IC50: > 10 µM
Second compound 0.03 µM
  IC50: > 10 µM
Second compound 0.0949 µM
  IC50: > 10 µM
Second compound 0.3 µM
  IC50: 9.98 µM
[1]
  viability, T/C: 102%
[2]
  viability, T/C: 104%
[3]
  viability, T/C: 90.7%
[4]
  viability, T/C: 104%
[25]
  viability, T/C: 93.1%
[26]
  viability, T/C: 79.4%
[5]
  viability, T/C: 102%
[6]
  viability, T/C: 98.7%
[7]
  viability, T/C: 95.9%
[8]
  viability, T/C: 103%
[27]
  viability, T/C: 125%
[28]
  viability, T/C: 86.3%
[9]
  viability, T/C: 108%
[10]
  viability, T/C: 80.8%
[11]
  viability, T/C: 97.5%
[12]
  viability, T/C: 87.6%
[29]
  viability, T/C: 124%
[30]
  viability, T/C: 88.6%
[13]
  viability, T/C: 90.2%
[14]
  viability, T/C: 80%
[15]
  viability, T/C: 81.3%
[16]
  viability, T/C: 97.9%
[31]
  viability, T/C: 115%
[32]
  viability, T/C: 73.6%
[17]
  viability, T/C: 77.3%
[18]
  viability, T/C: 95.7%
[19]
  viability, T/C: 89.4%
[20]
  viability, T/C: 113%
[33]
  viability, T/C: 124%
[34]
  viability, T/C: 71.3%
[21]
  viability, T/C: 77%
[22]
  viability, T/C: 94%
[23]
  viability, T/C: 85%
[24]
  viability, T/C: 95.7%
[35]
  viability, T/C: 95.9%
[36]
  viability, T/C: 49.9%

## Cc1nc(N2CCC3(CC2)COC(C)C3N)c(CO)nc1Sc1ccnc(N)c1Cl (stereo not drawn) + C#Cc1c(F)ccc2cc(O)cc(-c3ncc4c(N5CC6CCC(C5)N6)nc(OCC56CCCN5CC(F)C6)nc4c3F)c12
Second compound 0.0316 µM
  IC50: > 10 µM
Second compound 0.1 µM
  IC50: > 10 µM
Second compound 0.316 µM
  IC50: 1.98 µM
Second compound 1 µM
  IC50: 0.477 µM
Second compound 3.16 µM
  IC50: 0.0363 µM
Second compound 10 µM
  IC50: < 0.0316 µM
Second compound 0.0316 µM, first compound 0.0316 µM
  viability, T/C: 92.3%
Second compound 0.0316 µM, first compound 0.1 µM
  viability, T/C: 80.5%
Second compound 0.0316 µM, first compound 0.316 µM
  viability, T/C: 70.7%
Second compound 0.0316 µM, first compound 1 µM
  viability, T/C: 75%
Second compound 0.0316 µM, first compound 3.16 µM
  viability, T/C: 70.5%
Second compound 0.0316 µM, first compound 10 µM
  viability, T/C: 51.1%
Second compound 0.1 µM, first compound 0.0316 µM
  viability, T/C: 89.2%
Second compound 0.1 µM, first compound 0.1 µM
  viability, T/C: 78.1%
Second compound 0.1 µM, first compound 0.316 µM
  viability, T/C: 79.2%
Second compound 0.1 µM, first compound 1 µM
  viability, T/C: 60.9%
Second compound 0.1 µM, first compound 3.16 µM
  viability, T/C: 60.2%
Second compound 0.1 µM, first compound 10 µM
  viability, T/C: 51.9%
Second compound 0.316 µM, first compound 0.0316 µM
  viability, T/C: 78.7%
Second compound 0.316 µM, first compound 0.1 µM
  viability, T/C: 66.2%
Second compound 0.316 µM, first compound 0.316 µM
  viability, T/C: 56.7%
Second compound 0.316 µM, first compound 1 µM
  viability, T/C: 57.1%
Second compound 0.316 µM, first compound 3.16 µM
  viability, T/C: 50.5%
Second compound 0.316 µM, first compound 10 µM
  viability, T/C: 39.2%
Second compound 1 µM, first compound 0.0316 µM
  viability, T/C: 65.8%
Second compound 1 µM, first compound 0.1 µM
  viability, T/C: 63.2%
Second compound 1 µM, first compound 0.316 µM
  viability, T/C: 51.2%
Second compound 1 µM, first compound 1 µM
  viability, T/C: 42.1%
Second compound 1 µM, first compound 3.16 µM
  viability, T/C: 40.4%
Second compound 1 µM, first compound 10 µM
  viability, T/C: 26%
Second compound 3.16 µM, first compound 0.0316 µM
  viability, T/C: 51.3%
Second compound 3.16 µM, first compound 0.1 µM
  viability, T/C: 44%
Second compound 3.16 µM, first compound 0.316 µM
  viability, T/C: 38.1%
Second compound 3.16 µM, first compound 1 µM
  viability, T/C: 32.6%
Second compound 3.16 µM, first compound 3.16 µM
  viability, T/C: 23.5%
Second compound 3.16 µM, first compound 10 µM
  viability, T/C: 16.2%
Second compound 10 µM, first compound 0.0316 µM
  viability, T/C: 33.2%
Second compound 10 µM, first compound 0.1 µM
  viability, T/C: 27.7%
Second compound 10 µM, first compound 0.316 µM
  viability, T/C: 27.3%
Second compound 10 µM, first compound 1 µM
  viability, T/C: 18.6%
Second compound 10 µM, first compound 3.16 µM
  viability, T/C: 15.8%
Second compound 10 µM, first compound 10 µM
  viability, T/C: 10.3%

## CC(C)NCC(C(=O)N1CCN(c2ncnc3c2C(C)CC3O)CC1)c1ccc(Cl)cc1 (stereo not drawn) + CCn1c(-c2cccnc2C(C)OC)c2c3cc(ccc31)N1CCOC(CC(NC(=O)C(C(C)C)N(C)C(=O)C3(F)CCN(C(=O)C#CC(C)(C)N(C)C)CC3)C(=O)N3CCCC(N3)C(=O)OCC(C)(C)C2)C1
Second compound 0.000949 µM
  IC50: > 10 µM
Second compound 0.003 µM
  IC50: > 10 µM
Second compound 0.00949 µM
  IC50: > 10 µM
Second compound 0.03 µM
  IC50: > 10 µM
Second compound 0.0949 µM
  IC50: > 10 µM
Second compound 0.3 µM
  IC50: > 10 µM
[1]
  viability, T/C: 86%
[2]
  viability, T/C: 91.1%
[3]
  viability, T/C: 91.7%
[4]
  viability, T/C: 68.2%
[25]
  viability, T/C: 62.6%
[26]
  viability, T/C: 60.8%
[5]
  viability, T/C: 103%
[6]
  viability, T/C: 91.4%
[7]
  viability, T/C: 65.9%
[8]
  viability, T/C: 84.7%
[27]
  viability, T/C: 74.7%
[28]
  viability, T/C: 54.6%
[9]
  viability, T/C: 113%
[10]
  viability, T/C: 89.5%
[11]
  viability, T/C: 59.9%
[12]
  viability, T/C: 85.2%
[29]
  viability, T/C: 63.4%
[30]
  viability, T/C: 63.5%
[13]
  viability, T/C: 91.6%
[14]
  viability, T/C: 75.3%
[15]
  viability, T/C: 81.5%
[16]
  viability, T/C: 83.8%
[31]
  viability, T/C: 59.2%
[32]
  viability, T/C: 56.9%
[17]
  viability, T/C: 88.5%
[18]
  viability, T/C: 88.7%
[19]
  viability, T/C: 72.6%
[20]
  viability, T/C: 70.8%
[33]
  viability, T/C: 77.1%
[34]
  viability, T/C: 71.2%
[21]
  viability, T/C: 105%
[22]
  viability, T/C: 72.8%
[23]
  viability, T/C: 79.8%
[24]
  viability, T/C: 74.2%
[35]
  viability, T/C: 57%
[36]
  viability, T/C: 56.2%
